Data reported in patent US12440582B2, “Biothiol-activatable probe and method of use” (BOARD OF REGENTS, THE UNIVERSITY OF TEXAS SYSTEM, priority 2019, dated 2025).
Structures can show the parent of a compound that is named as a salt.

Assays:
liver GSH = assay: Liver GSH level measured ex vivo (Tietze enzymatic recycling assay); format: in vivo, BALB/c mice; settings: for hepatic GSH level: 30 min p.i.
serum GSH = assay: Serum GSH level following APAP administration; format: in vivo, mice; settings: 2 h after APAP 300 mg/kg i.p.
Experimental: FIG. 54. Serum GSH level following APAP administration. […] Data reported are means and standard deviation overlapped with data points from individual mouse. Statistical significance is evaluated by two-sample equal variance t-test. P<0.05 is considered statistically significant. N=4 mice for the experiment.

[1] = in vivo
From the text: FIGS. 39A-E. Utilization of hepatic glutathione-mediated biotransformation to enhance tumor targeting of a cisplatin prodrug. (FIG. 39A) Scheme illustrating the rationale of designing the ICG-Cis-Pt prodrug by combining temporal serum protein binding and hepatic glutathione-mediated biotransformation to slow down the rapid renal clearance of Cis-Pt prodrug and enhance its tumor targeting efficiency while avoiding predominant accumulation in MPS. […] (FIG. 39C) Tumor targeting efficiency of Cis-Pt pro drug and ICG-Cis-Pt prodrug at 48 hr p.i. (FIG. 39D) Renal clearance profiles of Cis-Pt prodrug and ICG-Cis-Pt prodrug. […] (FIG. 39E) Biodistribution of Pt in organs at 48 hr and 7 day following intravenously injection of ICG-Cis-Pt prodrug. The accumulation of ICG-Cis-Pt in MPS as well as in other major organs is low and continues to decrease over time. Statistical significance is evaluated by two-sample t-test (**p<0.01).

plasma GSH = assay: Plasma glutathione level after DEM administration; format: in vivo, BALB/c mice
Experimental: FIGS. 21A-B. Plasma glutathione level after DEM administration. (FIG. 21A) Plasma total glutathione (reduced GSH+2GSSG) and glutathione disulfide (GSSG) concentration at various time points after intraperitoneal injection of 1 mL/kg DEM in mice (n=3). (FIG. 21B) Plasma reduced glutathione concentration at different time was then calculated by subtracting GSSG from the total GSH concentration. The quantification of plasma total GSH and GSSG was carried out according to the established procedures (Rahman et al., 2006) via a modified Tietze enzymatic recycling assay.
Depletion of tissue GSH in vivo.

[2] = system: APAP-induced liver injury; assay: NAC treatment of APAP-induced liver injury (liver morphology, TUNEL); format: in vivo, mice
Experimental: FIGS. 44A-D. Monitoring hepatic GSH depletion in drug-induced liver injury allows early treatment and improves prognosis. (FIG. 44A) Scheme of the APAP metabolism and pathophysiology process of APAP overdose induced hepatotoxicity. Hepatic GSH depletion occurs much earlier than the death of hepatocytes and the release of serum biomarkers. (FIG. 44B) Serum ALT levels of mice (N=3) at multiple time points after receiving 300 mg/kg body weight APAP. […] (FIG. 44C) Serum ALT levels of mice (N=3) at 12 h post injection of overdose APAP with NAC treatment at different time points after APAP administration. (FIG. 44D) Representative color pictures of the liver (12 h after APAP administration) as well as fluorescent microscope images of cell death in liver tissues (detected using TUNEL assay) from APAP overdosed mice without NAC treatment or receiving NAC treatment at 30 min (early treatment) and 5.5 h (delayed treatment) after APAP administration. Cell nuclei were counter-stained with DAPI. Scale bar, 20 μm. Statistical significance is evaluated by two-sample equal variance t-test (P<0.05; statistically significant). Data points are presented as means and standard deviation.
APAP-induced liver injury animal model. Healthy male BALB/c mice were pre-fasted for 5 h and then intraperitoneally injected with APAP saline solution (˜28 mg/mL) at an overdose of 300 mg/kg body weight. […]

[3] = Tumor targeting efficiency in MCF-7 xenograft mice; format: in vivo; settings: nude, mouse, tumor (MCF-7 xenograft), intravenous, 24 hr p.i., read-out: tumor targeting efficiency (ICG)
From the text: Blue arrows indicate the tumors.

MCF-7 tumor = assay: in vivo; settings: MCF-7 tumor bearing nude mice
From the text: (§1) FIGS. 30A-B. Decay of background tissue fluorescence signal over time. (FIG. 30A) Representative in vivo imaging of 1CG4-GS-Au25 injected mouse (72 hr p.i.) illustrating the region of interest (ROI) chosen for tumor (red dashed circle) and background tissue (yellow dashed circle) ICG fluorescence quantification. Red arrows indicate tumor location.

in vivo = settings: nude, mouse, in vivo
From the text: as §1

[4] = Blood pharmacokinetics after intravenous injection; settings: i.v.
Experimental: Statistical significance is evaluated using a two-sample unequal variances (Welch's) t-test (**P<0.01, ***P<0.005). Data points are reported as mean±s.d.
Both curves were fitted with two-phase exponential decay functions to obtain the weighted average half-lives.
Pharmacokinetics and biodistribution study of 1CG4-GS-Au25. […] At certain time point post-injection, blood sample (˜30 μL) was retro-orbitally collected and weighed, followed by the addition of 500 μL lysis buffer containing 20 mM cysteine (pH˜8) to liberate ICG from Au25 nanocluster and recover the quenched fluorescence of ICG. Then fluorescence of cysteine treated blood sample was measured by the in vivo imaging system to quantify ICG in blood. Afterwards, the blood sample was completely dissolved in freshly made aqua regia and the Au amount in blood was analyzed by ICP-MS.

With `CC(=O)Nc1ccc(O)cc1` [APAP, acetaminophen] the “hepatic GSH level of overdosed mice, of that of the control mice” value (liver GSH; APAP 300 mg/kg) was ~36%, the “hepatic GSH level” value (liver GSH; APAP normal dose 60 mg/kg) was 6.6±0.8 μmole/g tissue and the “hepatic GSH level” value (liver GSH; APAP overdose 300 mg/kg) was 2.1±1.2 μmole/g tissue. For the same compound, the “serum GSH level” value (serum GSH) was “didn't change significantly”.

For `CN(C)CCCN1c2ccccc2Sc2ccc(Cl)cc21` [CPZ, chlorpromazine], the “liver GSH level” value (liver GSH; 0.5 h after CPZ 100 mg/kg i.p.) was “decrease in hepatic GSH level”.

In the case of `[NH2][Pt]([NH2])([OH])([Cl])([Cl])[O]C(=O)CCC(=O)O` [Cis-Pt prodrug, cis,cis,trans-[Pt(NH3)2Cl2(OH)(O2CCH2CH2COOH)]], the “AUC (blood retention)” value [1] is reported as 7.4±0.2 % ID/g×h.

With `CCOC(=O)/C=C\C(=O)OCC` [DEM, diethyl maleate] the “liver GSH level” value (liver GSH; 0.3 mg/kg body weight DEM, intraperitoneal) was ~3.1 μmole/g liver tissue, the “liver GSH level” value (liver GSH; 0.6 mg/kg body weight DEM, intraperitoneal) was ~0.6 μmole/g liver tissue and the “duration of low plasma GSH level before recovery” value (plasma GSH; single injection of DEM) was 2 to 3 h. For the same compound, the “plasma GSH level, of the initial value” (plasma GSH; single intraperitoneal injection of DEM, 1 mL/kg) was ~12%.

With `CC(=O)N[C@@H](CS)C(=O)O` [NAC, N-acetylcysteine] the “effect on liver damage (morphology, TUNEL)” value ([2]; NAC at 30 min post-injection of APAP (early treatment)) was “almost completely reverse the liver damage” and the “effect on liver damage (morphology, TUNEL)” value ([2]; NAC at 5.5 h after APAP overdose (delayed treatment)) was “severe hemorrhage on the liver tissue as well as the pervasive death of liver cells”.

In the case of `CC1(C)C(/C=C/C=C/C=C/C=C2\N(CCCCS(=O)(=O)O)c3ccc4ccccc4c3C2(C)C)=[N+](CCCCS(=O)(=O)[O-])c2ccc3ccccc3c21` [free ICG, indocyanine green], the tissue uptake at 24 h [3] is reported as ~0.15 %ID/g, the “maximum tumor contrast index (CI)” value (MCF-7 tumor) is reported as 1.8 and the half-life (in vivo; half-life of ICG retention (fluorescence decay) in tumor) is reported as ~3.8 h. For the same compound, the half-life (in vivo; half-life of ICG signal in background tissues) was 3.5 h and the “ICG blood retention (AUC)” value [4] was ~1.9 h×% ID/g.
